These results are taken from ChEMBL document CHEMBL5241112, “Insights into the recent progress in the medicinal chemistry of pyranopyrimidine analogs” (RSC Med Chem, 2022).

Assay [1] has as its system Mycobacterium tuberculosis. The experiment in a line: Antitubercular activity against Mycobacterium tuberculosis H37Rv assessed as bacterial growth inhibition incubated for 24 hrs by MABA assay. It is filed as functional.
For assay [2], the system named is HCT-116. The experiment in a line: Anticancer activity against human HCT-116 cells assessed as reduction in cell viability incubated for 96 hrs by MTT assay. The format is functional, cell-based. The settings on record: HCT-116, 96 h. Background: Formazan colour is commonly taken as a measure of viable cells.
The subject of another assay is Bacillus cereus. The experiment in a line: Antimicrobial activity against Bacillus cereus ATCC14579 assessed as diameter of inhibition zone at 20 mg/ml incubated for 24 hrs by disk diffusion method. It is filed as functional. The settings on record: read-out: DIZ. In general terms: In agar diffusion tests the substance spreads into inoculated agar from a disc or well.

Assay [3] has as its system Staphylococcus aureus. The experiment in a line: Antimicrobial activity against Staphylococcus aureus NCTC7447 assessed as diameter of inhibition zone at 20 mg/ml incubated for 24 hrs by disk diffusion method. As to conditions: read-out: DIZ. It is filed as functional.
The subject of the next assay is Klebsiella pneumoniae. The experiment in a line: Antimicrobial activity against Klebsiella pneumoniae UC57 assessed as diameter of inhibition zone at 20 mg/ml incubated for 24 hrs by disk diffusion method. The settings on record: read-out: DIZ. It is filed as functional.
For the next assay, the system named is Pseudomonas aeruginosa. The experiment in a line: Antimicrobial activity against Pseudomonas aeruginosa ATCC 27853 assessed as diameter of inhibition zone at 20 mg/ml incubated for 24 hrs by disk diffusion method. It is filed as functional. The settings on record: read-out: DIZ.
For assay [4], the system named is Escherichia coli. The experiment in a line: Antimicrobial activity against Escherichia coli ATCC 14169 assessed as diameter of inhibition zone at 20 mg/ml incubated for 24 hrs by disk diffusion method. As to conditions: read-out: DIZ. The format is functional.
Assay [5] has as its system Staphylococcus aureus. The experiment in a line: Antibacterial activity against Staphylococcus aureus assessed as diameter of inhibition zone. It is filed as functional.
Assay [6] deals with Escherichia coli. The experiment in a line: Antibacterial activity against Escherichia coli assessed as diameter of inhibition zone. It is filed as functional.
The subject of a further assay is Salmonella typhimurium. The experiment in a line: Antibacterial activity against Salmonella typhimurium assessed as diameter of inhibition zone. The format is functional, Salmonella enterica subsp. enterica serovar Typhimurium.
A further assay relates to Bacillus subtilis. The experiment in a line: Antibacterial activity against Bacillus subtilis assessed as diameter of inhibition zone. The format is functional.
A short description of assay [7]: Antioxidant activity assessed as DPPH radical scavenging activity incubated for 20 mins by spectrophotometric analysis. The format is functional. Further details: concentration or dose not given beside the values. (In general: The DPPH test is a chemical assay of radical scavenging.)
Assay [8] is described as follows: Antioxidant activity assessed as hydroxyl radical scavenging activity incubated for 5 mins by spectrophotometric analysis. It is filed as functional. Set-up: concentration or dose not given beside the values.
The nature of assay [9]: Inhibition of porcine pancreatic alpha-amylase preincubated for 10 mins followed by substrate starch addition and measured after 10 mins by colorimetric analysis. Set-up: species or system Sus scrofa.
A further assay relates to HepG2. The experiment in a line: Anticancer activity against human HepG2 cells assessed as reduction in cell viability. The format is functional, cell-based.
In a further assay the test system is MCF7. The experiment in a line: Anticancer activity against human MCF7 cells assessed as reduction in cell viability. It is filed as functional, cell-based.
For assay [10], the system named is HCT-116. The experiment in a line: cells. The settings on record: Homo sapiens.

Values after ≈ are worked out from the molar mass of the structure shown.

One may read the MIC as the smallest concentration in the dilution series that meets the test's criterion for growth inhibition. As for `O=c1nc2c3c([nH]1)Oc1ccc4ccccc4c1C3c1c(c3ccccc3oc1=O)O2` (stereo unspecified), in assay [1], the MIC is 25 µg/mL (≈ 61.2 µM).
The same measure, in the same setting: in the case of `O=c1nc2c3c([nH]1)Oc1c(Cl)cc(Cl)cc1C3c1c(c3ccccc3oc1=O)O2` (stereo unspecified) it was 50 µg/mL (≈ 117 µM).
The same measure, in the same setting: in the case of `O=c1nc2c3c([nH]1)Oc1ccc(O)cc1C3c1c(c3ccccc3oc1=O)O2` (stereo unspecified) it was 50 µg/mL (≈ 134 µM).
In general, IC50 refers to the point on the concentration scale where inhibition reaches its midpoint. Take `CCO/C=N/C1=C(C#N)C(c2cccs2)c2c([nH]c(=O)[nH]c2=O)O1` (stereo unspecified): the IC50 with HCT-116 [2] amounted to 2900 nM.
`N#CC1=C(N)Oc2[nH]c(=O)[nH]c(=O)c2C1c1ccc(O)cc1` (stereo unspecified): the zone of inhibition at 20000 µg/mL in the assay on Bacillus cereus was determined as 14 mm; with Staphylococcus aureus [3] it was 15 mm; in the assay on Klebsiella pneumoniae, 10 mm; in the assay with Pseudomonas aeruginosa, 15 mm; with Escherichia coli [4] it was 15 mm. Further, the “diameter of the inhibition zone (DIZ)” value in the assay on Staphylococcus aureus [5], in the assay on Escherichia coli [6] and in the assay with Salmonella typhimurium was 10 mm each time.
As for `CN[C@@H]1[C@H](O[C@H]2[C@H](O[C@H]3[C@H](O)[C@@H](O)[C@H](N=C(N)N)[C@@H](O)[C@@H]3N=C(N)N)O[C@@H](C)[C@]2(O)C=O)O[C@@H](CO)[C@H](O)[C@H]1O` [STREPTOMYCIN], the zone of inhibition at 20000 µg/mL came out at 16 mm in the assay on Bacillus cereus; 18 mm in the assay with Staphylococcus aureus [3]; 18 mm in the assay on Klebsiella pneumoniae; 16 mm in the assay with Pseudomonas aeruginosa; 18 mm in the assay with Escherichia coli [4]. Also, the “diameter of the inhibition zone (DIZ)” value is 16 mm in the assay with Staphylococcus aureus [5], 18 mm in the assay with Bacillus subtilis, 20 mm in the assay with Escherichia coli [6] and 18 mm in the assay on Salmonella typhimurium. Also, the minimal inhibitory concentration (MIC) in assay [1] amounted to 6.25 µg/mL (≈ 10.7 µM).
In the case of `O=c1nc2c3c([nH]1)Oc1ccccc1C3c1c(c3ccccc3oc1=O)O2` (stereo unspecified), the MIC in assay [1] is 12.5 µg/mL (≈ 34.9 µM).
As to `N#CC1=C(N)Oc2[nH]c(=O)[nH]c(=O)c2C1c1cccc(O)c1` (stereo unspecified), the zone of inhibition at 20000 µg/mL in the assay with Bacillus cereus was 10 mm; in the assay with Staphylococcus aureus [3], 15 mm; in the assay with Klebsiella pneumoniae it was 8 mm; with Pseudomonas aeruginosa, 15 mm; with Escherichia coli [4], 14 mm.
Turning to `N#CC1=C(N)Oc2[nH]c(=O)[nH]c(=O)c2C1c1ccc([N+](=O)[O-])cc1` (stereo unspecified), the zone of inhibition at 20000 µg/mL with Bacillus cereus is 11 mm; with Staphylococcus aureus [3], 4 mm; with Klebsiella pneumoniae, 4 mm; in the assay on Pseudomonas aeruginosa it was 3 mm; with Escherichia coli [4], 12 mm. In addition, the “diameter of the inhibition zone (DIZ)” value stood at 16 mm with Staphylococcus aureus [5], 18 mm with Bacillus subtilis, 16 mm in the assay on Escherichia coli [6] and 14 mm in the assay on Salmonella typhimurium.
In the case of `COc1ccc(C2c3[nH]c(=O)[nH]c(=O)c3Oc3c2c(=O)oc2ccccc32)c(O)c1` (stereo unspecified), the values for the Activity in [7] and in assay [8] were 59.1% and 54.3%, respectively.
For the compound `NC(=O)c1cnccn1` [PYRAZINAMIDE], the MIC in assay [1] came to 3.12 µg/mL (≈ 25.4 µM).
Regarding `CN[C@@H]1C[C@H]2O[C@@](C)([C@@H]1OC)n1c3ccccc3c3c4c(c5c6ccccc6n2c5c31)C(=O)NC4` [STAUROSPORINE], the concentration for half-maximal inhibition (IC50) in the assay with HCT-116 [2] was 6940 nM.
As for `N#CC1=C(N)Oc2[nH]c(=O)[nH]c(=O)c2C1c1ccccc1Cl` (stereo unspecified), the “diameter of the inhibition zone (DIZ)” value in the assay with Staphylococcus aureus [5] was 20 mm; in the assay with Bacillus subtilis it was 18 mm; in the assay on Escherichia coli [6], 14 mm; in the assay with Salmonella typhimurium, 18 mm.
Turning to `C[C@H]1O[C@H](O[C@H]2[C@H](O)[C@@H](O)[C@@H](O[C@H]3[C@H](O)[C@@H](O)C(O)O[C@@H]3CO)O[C@@H]2CO)[C@H](O)[C@@H](O)[C@@H]1N[C@H]1C=C(CO)[C@@H](O)[C@H](O)[C@H]1O` (stereo partly specified) [ACARBOSE], the IC50 in assay [9] stood at 214 nM.
In the case of `O=c1nc2c3c([nH]1)Oc1c(O)cccc1C3c1c(c3ccccc3oc1=O)O2` (stereo unspecified), the minimum inhibitory concentration (MIC) in assay [1] was determined as 50 µg/mL (≈ 134 µM).
In the case of `COc1ccccc1C1C(C#N)=C(N)Oc2[nH]c(=O)[nH]c(=O)c21` (stereo unspecified), the zone of inhibition at 20000 µg/mL in the assay on Bacillus cereus came out at 11 mm; in the assay on Staphylococcus aureus [3], 15 mm; in the assay with Klebsiella pneumoniae it was 13 mm; in the assay on Pseudomonas aeruginosa it was 7 mm; in the assay on Escherichia coli [4] it was 9 mm.
Turning to `COc1ccc(C2C(C#N)=C(NC(C)=O)Oc3[nH]c(=O)[nH]c(=O)c32)cc1` (stereo unspecified), the IC50 in the assay on HepG2 came out at 2090 nM; in the assay with MCF7, 2430 nM; with HCT-116 [10], 2610 nM.
For `COc1ccc(C2C(C#N)=C(NC(=O)/C=C/C(=O)O)Oc3[nH]c(=O)[nH]c(=O)c32)cc1` (stereo unspecified) the same measures were 2090 nM, 2430 nM and 2610 nM.
The matching figures for `COc1ccc(C2c3c([nH]c(=O)[nH]c3=O)Oc3ncn(-c4ccccc4N)c(=N)c32)cc1` (stereo unspecified): 2090 nM, 2430 nM and 2610 nM.
